What was measured:
[1] = test system: Human ES cells (KhES-1 strain); experiment: Effect of each Wnt signal transduction pathway inhibiting substance on production of cell mass containing neural tissue and nonneural epithelial tissue (Example 7); format: cell-based; details: inhibitor added from start of suspension culturing (IWP-2 2 or 5 μM, C-59 2 μM, IWP-L6 1 or 10 μM, LGK974 1 or 5 μM, KY 02111 1 or 5 μM, XAV939 1 μM) with SB-431542 1 μM; BMP4 1.5 nM on day 2; bright field observation day 10
Procedure: Human ES cells (KhES-1 strain) were cultured under feeder-free conditions according to the method described in Scientific Reports, 4, 3594 (2014). As the feeder-free medium, StemFit medium was used and, as the feeder-free scaffold, Laminin 511-E8 was used. Specific maintenance culturing operation was performed in the same manner as in Example 1.
The thus-prepared subconfluent human ES cells were washed with PBS, subjected to an enzyme treatment using Accumax, a mukessei medium medium for differentiation induction was added, and the cells were scraped from the surface of the culture dish by using a cell scraper and dispersed into single cells by pipetting. Thereafter, the aforementioned human ES cells dispersed into single cells were suspended in 100 μl of a serum-free medium at 1.2×10^4 cells per well of a non-cell-adhesive 96-well culture plate (PrimeSurface 96V-bottom plate, manufactured by SUMITOMO BAKELITE), and cultured in suspension under the conditions of 37° C., 5% CO2. As the serum-free medium (gfCDM+KSR) therefor, a serum-free medium which is a 1:1 mixture of F-12+Glutamax medium and IMDM+Glutamax medium supplemented with 5% Knockout Serum Replacement, 450 μM 1-mono thioglycerol, 1× Chemically defined lipid concentrate, 50u/ml penicillin-50 μg/ml streptomycin was used. At the time of the start of suspension culturing (day 0 from the start of suspension culturing, start of step 1), Y27632 (final concentration 20 μM) and SB-431542 (1 μM) were added to the aforementioned serum-free medium. As the Wnt signal transduction pathway inhibiting substance, IWP-2 (manufactured by Tocris Bioscience, 2 or 5 μM), C-59 (manufactured by Cayman Chemicals, 2 μM), IWP-L6 (manufactured by AdooQ bioscience, 1 or 10 μM), LGK974 (manufactured by Cayman Chemicals, 1 or 5 μM), KY 02111 (manufactured by Cayman Chemicals, 1 or 5 μM), or XAV939 (manufactured by Cayman Chemicals, 1 μM) was added at the start of the suspension culturing, and the condition with the addition of DMSO alone as a control of no addition of a Wnt signal transduction pathway inhibiting substance was performed. Thereafter, a serum-free medium not containing Y27632 and containing each Wnt signal transduction pathway inhibiting substance, SB-431542 and BMP4 was added at 100 μl per well on day 2 from the start of suspension culturing. BMP4 was added at 3 nM to the medium so that the final concentration in the well could be 1.5 nM. A half amount of the medium was changed with a serum-free medium not containing Y27632 or BMP and containing each Wnt signal transduction pathway inhibiting substance and SB-431542 on day 6 from the start of suspension culturing. Bright field observation was performed under an inverted microscope (manufactured by KEYENCE CORPORATION, BIOREVO) on day 10 from the start of suspension culturing (FIGS. 8A-K).

[2] = test system: Human ES cells (KhES-1 strain); experiment: Effect of compound pre-treatment before differentiation induction on quality grade of cell masses (Example 8); format: cell-based; details: day 15 of differentiation induction; for number of Grade 1 cell masses (near spherical, not less than 80% of circumference coated with nonneural epithelium) / number of Grade 2 cell masses (80% to 40% of circumference coated with nonneural epithelium, or distorted shape) / number of Grade 3 cell masses (nonneural epithelium on surface not more than 40%): of 32 cell masses, pre-treatment 6 days after seeding (300 nM SAG and/or 5 μM SB-431542)
Procedure: Human ES cells (KhES-1 strain) were cultured under feeder-free conditions according to the method described in Scientific Reports, 4, 3594 (2014). As the feeder-free medium, StemFit medium was used and, as the feeder-free scaffold, Laminin 511-E8 was used. Specific maintenance culturing operation was performed in the same manner as in Example 1. Cells under 4 conditions were prepared including conditions in which, when the cultured cells are used for differentiation induction, nothing is simultaneously added with medium change with […] medium (Control), conditions in which 300 nM SAG alone is added (+300 nM SAG), conditions in which 5 µM SB-431542 alone is added (+5 μM SB-431542), and conditions in which SAG and SB431542 are simultaneously added (+SAG/SB) at 6 days after seeding. The next day of the above-mentioned treatment, human ES cells under 4 conditions that reached subconfluence were each subjected to differentiation induction by suspension culturing into a cell mass containing neural tissue and nonneural epithelial tissue according to the method described in Example 1. Thereafter, on day 15 of differentiation induction, bright field observation was performed using an inverted microscope (manufactured by KEYENCE CORPORATION, BIOREVO). The cell masses formed after each pre-treatment were evaluated in three stages of cell masses with near spherical form in which not less than 80% of the whole circumference is coated with nonneural epithelium (Grade 1, e.g.-FIG. 9A); cell masses in which 80% to 40% of the whole circumference is coated with nonneural epithelium, or with a distorted shape (Grade 2, e.g.-FIG. 9B); and cell masses in which the proportion of nonneural epithelium on the cell mass surface is not more than 40% (Grade 3, e.g.=FIG. 9C).

Compound: Cc1cc(-c2ccc(CC(=O)Nc3ccc(-c4cccnc4)cc3)cc2)ccn1 [C-59]
- formation of cell mass having nonneural epithelial tissue on the surface [1]: a cell mass having nonneural epithelial tissue on the surface was formed

Compound: Cc1ccc2nc(NC(=O)CSc3nc4c(c(=O)n3-c3ccccc3)SCC4)sc2c1 [IWP-2]
- formation of cell mass having nonneural epithelial tissue on the surface [1]: a cell mass having nonneural epithelial tissue on the surface was formed

Compound: O=C(CSc1nc2c(c(=O)n1-c1ccccc1)SCC2)Nc1ccc(-c2ccccc2)cn1 [IWP-L6]
- formation of cell mass having nonneural epithelial tissue on the surface [1]: a cell mass having nonneural epithelial tissue on the surface was formed

Compound: COc1ccc(CCC(=O)Nc2nc3ccc(Cl)cc3s2)cc1OC [KY02111]
- formation of cell mass having nonneural epithelial tissue on the surface [1]: a cell mass having nonneural epithelial tissue on the surface was formed

Compound: Cc1cc(-c2ncc(CC(=O)Nc3ccc(-c4cnccn4)cn3)cc2C)ccn1 [LGK974]
- formation of cell mass having nonneural epithelial tissue on the surface [1]: a cell mass having nonneural epithelial tissue on the surface was formed

Compound: CNC1CCC(N(Cc2cccc(-c3ccncc3)c2)C(=O)c2sc3ccccc3c2Cl)CC1 (stereo not shown) [SAG, N-Methyl-N′-(3-pyridinylbenzyl)-N′-(3-chlorobenzo[b]thiophene-2-carbonyl)-1,4-diaminocyclohexane]
- number of Grade 1 cell masses (near spherical, not less than 80% of circumference coated with nonneural epithelium) [2]: 10
- number of Grade 2 cell masses (80% to 40% of circumference coated with nonneural epithelium, or distorted shape) [2]: 18
- number of Grade 3 cell masses (nonneural epithelium on surface not more than 40%) [2]: 4

Compound: NC(=O)c1ccc(-c2nc(-c3ccc4c(c3)OCO4)c(-c3ccccn3)[nH]2)cc1 [SB-431542, 4-(5-benzol[1,3]dioxol-5-yl-4-pyridin-2-yl-1H-imidazol-2-yl)-benzamide]
- number of Grade 1 cell masses (near spherical, not less than 80% of circumference coated with nonneural epithelium) [2]: 28
- number of Grade 2 cell masses (80% to 40% of circumference coated with nonneural epithelium, or distorted shape) [2]: 4
- number of Grade 3 cell masses (nonneural epithelium on surface not more than 40%) [2]: 0
- proportion of Grade 1 cell masses as compared to Control with no treatment ([2]; pre-treatment 6 days after seeding): drastically improved

Compound: Oc1nc(-c2ccc(C(F)(F)F)cc2)nc2c1CSCC2 [XAV939]
- formation of cell mass having nonneural epithelial tissue on the surface [1]: a cell mass having nonneural epithelial tissue on the surface was formed

From US20210071137A1, “PRODUCTION METHOD FOR CELL MASS INCLUDING NEURAL CELLS/TISSUE AND NON-NEURAL EPITHELIAL TISSUE, AND CELL MASS FROM SAME” (SUMITOMO CHEMICAL COMPANY, LIMITED, priority 2017, published 2021)
